Experiments:
Type in all cases: in vivo, dog
Conditions in all cases: Konzett data
5-HT = experiment: Konzett bronchodilator assay, 5-HT
Hist = experiment: Konzett bronchodilator assay, Hist
Ach = experiment: Konzett bronchodilator assay, Ach

For `CCCCCC(C)(O)/C=C/C1C(O)CC(=O)C1C/C=C\CCCCO` (racemic) [dl-1,11,15-trihydroxymethyl-9-oxo-15-methyl-5-cis-13-trans prostadiene], the “5-HT (ED50 g/kg)” value (5-HT) was 0.0083 g/kg, the “Hist (ED50 g/kg)” value (Hist) was 0.00075 g/kg and the “Ach (ED50 g/kg)” value (Ach) was 0.0043 g/kg.
